≈ marks a conversion by molar mass, not a printed value. Read-outs that look alike come from different tables or passages of the source.
Columns and labels:
[1] = system: Candida pseudotropicalis K. 11658; experiment: In vitro antifungal activity, microbroth dilution MIC; format: cell-based; conditions: Kluyveromyces marxianus, 4 to 48 hours
Summary of the method: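 Broth microdilution adapted from NCCLS M27, in RPMI-1640 with 0.165 M MOPS, pH 7.0. Yeast or mould inoculum at 2×10^3 CFU/ml was mixed 1:1 with DMSO-derived compound solutions (200 to 0.10 μg/ml before mixing) and incubated at 35 °C for 4 to 48 h. MIC was the concentration showing no growth.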

mouse = conditions: oral; cited from earlier work
[2] = C. pseudotropicalis K. 11658, RPMI-1640, 35° C., read-out: Minimal inhibitory concentration (MIC)
[3] = K.11658, RPMI-1640, 35° C., no growth observed, read-out: Minimal inhibitory concentration(MIC), C. pseudotropicalis K. 11658

Row | SMILES | MIC [1, 2] [µg/mL] | MIC [1, 3] [µg/mL] | LD50 (mouse) [mg/kg]
1 | OC(Cn1cncn1)(Cn1cncn1)c1ccc(F)cc1F [fluconazole, reference compound] | 12.5 (≈ 40.8 µM) | 12.5 (≈ 40.8 µM) | 
2 | CCC(C)n1ncn(-c2ccc(N3CCN(c4ccc(OCC5COC(Cn6cncn6)(c6ccc(Cl)cc6Cl)O5)cc4)CC3)cc2)c1=O (centres unmarked) [itraconazole, reference compound] | 0.39 (≈ 0.553 µM) | 0.39 (≈ 0.553 µM) | 320
